Series [1] relates to S. aureus RN4220 lysate. The series is described as follows: Bacterial lysate carbamate cleavage assay (LC/MS). Conditions: 400 μM, 16 h; for cleavage in S. aureus lysate: LC/MS; for degree of carbamate cleavage to 8h: S. aureus lysate. The format is in vitro ADME, Staphylococcus aureus. The protocol: An overnight culture of S. aureus RN4220 was set up in TSB medium (BD Bacto Tryptic Soy Broth). The next day, a 150 mL day culture was started at an initial OD600 of 0.1. The culture was incubated at 200 rpm shaking at 37 °C. The bacteria were harvested after 3 h and 40 min (OD600 = 3.30). A 1 mL aliquot was retained to determine cell number. 150 mL of the culture was centrifuged at 4000 rpm for 10 min at 4 °C. The resulting pellet was resuspended in 10 mL of JB Lysis Buffer (0.1% Triton X-100, 20 mM Tris-HCl, 150 mM KCl, 1 mM MgCl2, 1 mM DTT, and protease inhibitors) and transferred to FastPrep tubes. Cells were mechanically lysed (2 × 30 s, 6.5 m/s) and cooled for 5 min on ice. The samples were centrifuged, and the supernatant was transferred to a new tube. Subsequently, it was centrifuged again at 5000 rpm for 30 min at 4 °C. The pellet was washed three times with 1× PBS, reducing the volume to 1 mL. Protein concentration was determined using the Pierce BCA Protein Assay Kit (Thermo Scientific). The final sample was frozen in liquid nitrogen and stored at −80 °C. 100 μL of this lysate was incubated with 8f–h (final concentration 400 μM, 2% DMSO) for 16 h at 30 °C. Afterward, 100 μL acetonitrile was added, and the samples were passed through a syringe filter. Ten μL of the samples were injected during LC/MS (Agilent 1100 system, LC/MSD trap) using an Agilent Poroshell 120 EC-C18 150 × 2.10 mm 4 μm column; mobile phase (gradient: acetonitrile/H2O, 0.1% formic acid). The LC/MS chromatograms and their corresponding mass spectra (base-peak) were analyzed using MestReNova (12.0.4) for prodrug deprotection products.

Series [2] has as its target T1, S. aureus TrmD (Staphylococcus aureus, UniProt Q2FZ43).
T1 construct: made in house; host or cells: E. coli BL21
T1 sequence (Q2FZ43 1-245): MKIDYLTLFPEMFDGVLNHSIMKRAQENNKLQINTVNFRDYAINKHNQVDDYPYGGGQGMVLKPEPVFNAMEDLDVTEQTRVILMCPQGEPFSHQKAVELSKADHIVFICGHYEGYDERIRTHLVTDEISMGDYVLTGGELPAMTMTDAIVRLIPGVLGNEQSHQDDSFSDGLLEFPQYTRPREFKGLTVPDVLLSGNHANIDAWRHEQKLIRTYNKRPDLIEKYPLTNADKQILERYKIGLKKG
As to the kind of experiment: nanoSAR direct-to-biology FP displacement screening of crude triazoles. The class given is binding. Conditions: read-out: % displaced tracer. The method, boiled down: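 S. aureus TrmD (500 nM) with tracer 4 (10 nM) in Tris/NaCl/MgCl2/glycerol buffer, pH 7.5, was challenged with unpurified triazoles from in situ CuAAC of alkyne 7 with a 320-member azide library.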

[3] abbreviates: crude triazole at 1 μM, assuming full conversion, 500 nM TrmD, 10 nM tracer 4.

SMILES strings stand for the structures. Like-named read-outs stand apart in the source and are kept apart here.

Take `O=C(/N=C(\NCCn1cc(-c2c[nH]c3nc[nH]c(=O)c23)nn1)NC(=O)OCc1ccccc1)OCc1ccccc1` [Compound 8f]: in series [1], the “cleavage in S. aureus lysate” value is “readily cleaved” and the “degree of carbamate cleavage to 8h” value is reported as ~30%.

For `O=c1[nH]cnc2[nH]cc(-c3cn(CC4CCC5C(CC4)C5(F)F)nn3)c12` (stereo not drawn) [Compound 8c, 5-(1-((8,8-Difluorobicyclo[5.1.0]octan-4-yl)methyl)-1H-1,2,3-triazol-4-yl)-3,7-dihydro-4H-pyrrolo[2,3-d]pyrimidin-4-one], in series [2] (setting [3]), the inhibition at 1 µM worked out at 98%.

Turning to `N#Cc1cccc(Cn2cc(-c3c[nH]c4nc[nH]c(=O)c34)nn2)c1` [Compound 8b, 3-((4-(4-Oxo-4,7-dihydro-3H-pyrrolo[2,3-d]pyrimidin-5-yl)-1H-1,2,3-triazol-1-yl)methyl)benzonitrile], in series [2] (setting [3]), the inhibition at 1 µM is 100%.

Take `CC(C)(C)OC(=O)/N=C(\NCCn1cc(-c2c[nH]c3nc[nH]c(=O)c23)nn1)NC(=O)OC(C)(C)C` [Compound 8g]: in series [1], the “cleavage in S. aureus lysate” value is recorded as “readily cleaved” and the “degree of carbamate cleavage to 8h” value is ~30%.

On to `N[C@@H]1CCC[C@@H]1Cn1cc(-c2c[nH]c3nc[nH]c(=O)c23)nn1` [Compound 8e, 5-(1-(((1R,2R)-2-Aminocyclopentyl)methyl)-1H-1,2,3-triazol-4-yl)-3,7-dihydro-4H-pyrrolo[2,3-d]pyrimidin-4-one], for which the inhibition at 1 µM in series [2] (setting [3]) was 93%.

With `NC(N)=NCCn1cc(-c2c[nH]c3nc[nH]c(=O)c23)nn1` [Compound 8h], in series [2], the inhibition at 1 µM was 97%.

For `O=c1[nH]cnc2[nH]cc(-c3cn(Cc4ccc5ncccc5c4)nn3)c12` [Compound 8d, 5-(1-(Quinolin-6-ylmethyl)-1H-1,2,3-triazol-4-yl)-3,7-dihydro-4H-pyrrolo[2,3-d]pyrimidin-4-one], in series [2] (setting [3]), the inhibition at 1 µM was determined as 98%.

The values above are taken from publication PMC12751012, “Nanoscale Direct-to-Biology Optimization and Structural Insights into Selective S. aureus TrmD Inhibitors” (Journal of Medicinal Chemistry, 2025).
